Laboratory results published in patent US20100022509A1, “Inhibitors of MshC and Homologs Thereof, and Methods of Identifying Same” (priority 2006, published 2010).
≈ marks a conversion by molar mass, not a printed value.

How the values were obtained:
Type in all cases: cell-based
M. smegmatis = assay: Growth of M. smegmatis parent and MSH mutant strains in the presence of INH
Procedure: Using the parental strain mc^2155, the Myco504 mutant in mshB that produces 5-10% of normal MSH in exponential growth, and the mutant strain 49 that produces 0% of normal MSH, the effect of 0-30 μg per ml INH upon growth was examined. […] This is seen in FIG. 13 for growth in the presence of 10 μg per ml INH.

M. smegmatis mc^2155 = assay: Inhibitor studies with Mycobacterium smegmatis: growth
Procedure: (§1) Inhibitor studies with Mycobaterium smagmatis. An exponential culture of M. smegmatis mc^2155 in Middlebrook 7H9 medium containing 0.05% Tween 80 and 1% glucose was used to inoculate a culture in the same medium but with 0.4% glucose to A600=0.05. The inhibitor NTF1836 was added from a stock solution in Me2SO at 0, 10, 20, 30 and 40 μM to duplicate 40 ml aliquots of the culture in 125 ml flasks to produce a final Me2SO content of ≦0.04%. The cells were incubated at 37° C. and 250 rpm. At A600˜0.25 and subsequent doublings in cell density, a volume of culture was removed sufficient to provide analysis of GlcN-Ins and MSH as described above.

[1] = test system: mycothiol biosynthesis in M. smegmatis mc^2155; assay: Inhibitor studies with Mycobacterium smegmatis: GlcN-Ins and MSH content by HPLC; conditions: 30 μM, after 12 h
Procedure: as §1

[2] = test system: Enterococcus faecalis ATCC 29212; assay: MIC by broth dilution assay
Staphylococcus aureus = assay: MIC by broth dilution assay; conditions: for MIC: n = 3
[3] = test system: Mycobacterium smegmatis mc^2155 ATCC 700084; assay: MIC by broth dilution assay
[4] = test system: MshC within M. tuberculosis; assay: Mycothiol and GlcN-Ins content of M. tuberculosis, day 7
M. tuberculosis = assay: Growth of M. tuberculosis in broth culture, 7 days (optical density, plate counts); conditions: for OD600: day 7, starting OD600 0.08

NNC(=O)c1ccncc1 [INH, isoniazid]
growth of strain 49 (0% MSH) (M. smegmatis; 2 μg per ml INH and above): no effect | growth of strain mc^2155 (M. smegmatis; 2 μg per ml INH and above): became inhibited | growth of strain 49 (0% MSH) (M. smegmatis; 10 μg per ml INH): grows at the same rate as in the absence of INH | growth of strain Myco504 (5-10% MSH) (M. smegmatis; 10 μg per ml INH): markedly inhibited | growth of strain mc^2155 (M. smegmatis; 10 μg per ml INH): markedly inhibited

CN(CCCNC(=O)c1ccc2c(c1)N(Cc1cccc(Cl)c1)C(=O)c1ccccc1[S+]2[O-])C1CCCCC1 (centres unmarked) [NTF1836]
growth rate (M. smegmatis mc^2155; 30 μM): half the normal rate | growth (M. smegmatis mc^2155; 40 μM, after 8 h): completely inhibited | GlcN-Ins content [1]: twice the normal level | growth inhibition, in words [2]: inhibitory | MIC ([2]; ATCC29212, Todd Hewitt, n = 3): 64 µg/mL (≈ 113 µM) | MIC (Staphylococcus aureus; ATCC25923, Staphylococcus aureus ATCC 25923, TSB): 128 µg/mL (≈ 227 µM) | growth inhibition, in words (Staphylococcus aureus; Staphylococcus aureus): inhibitory | MIC (Staphylococcus aureus; Staphylococcus aureus RN450, TSB): 64 µg/mL (≈ 113 µM) | growth inhibition, in words ([3]; M. smegmatis): inhibitory | MIC ([3]; Mycolicibacterium smegmatis, ATCC700084|MC^2155, Middlebrook 7H9 + 1% glucose, n = 3): 16 µg/mL | GlcN-Ins ([4]; 20 uM): 2.77 ± 0.09 nmoles/10^9 bacteria | GlcN-Ins/mycothiol ([4]; 20 uM): 0.09 | mycothiol ([4]; 20 uM): 27.8 ± 2.5 nmoles/10^9 bacteria | GlcN-Ins ([4]; 30 uM): 3.49 ± 0.10 nmoles/10^9 bacteria | GlcN-Ins/mycothiol ([4]; 30 uM): 0.18 | mycothiol ([4]; 30 uM): 19.1 ± 2.5 nmoles/10^9 bacteria | GlcN-Ins ([4]; 50 uM): 4.28 nmoles/10^9 bacteria | GlcN-Ins/mycothiol ([4]; 50 uM): 0.428 | mycothiol ([4]; 50 uM): 10.0 nmoles/10^9 bacteria | GlcN-Ins ([4]; 75 uM): 4.22 nmoles/10^9 bacteria | GlcN-Ins/mycothiol ([4]; 75 uM): 1.21 | mycothiol ([4]; 75 uM): 3.5 nmoles/10^9 bacteria | OD600 (M. tuberculosis; 20 uM): 1.304 ± 0.014 | OD600 (M. tuberculosis; 30 uM): 0.600 ± 0.049 | OD600 (M. tuberculosis; 50 uM): 0.271 | OD600 (M. tuberculosis; 75 uM): 0.12 | IC50 (M. tuberculosis; Mycobacterium tuberculosis, 168 h, 7 days, by optical density and by plate counts of viable bacteria, read-out: IC50 for growth inhibition of M. tuberculosis): 20 to 30 µM
